Where no end group is shown, it is not given here.

For data set [1], the system named is senescent cells in the liver. Put plainly: Systemic delivery to aged mice, liver SA-β-gal. The class given is in vivo, mouse. Particulars: aged mice (82 weeks), 3 mg ES2 via tail vein weekly for three weeks, n=5, p=0.03. As for the experimental part: Senescent and dividing cells or tissue sections were fixed with 4% formaldehyde. The cells were washed with PBS twice before staining with X-gal solution [1 mg/mL 5-bromo-4-chloro-3inolyl-β-D-galactoside (Boehringer Manneheim #745-740) in N,N-dimethylformamide, 5 mM potassium ferricyanide crystalline (#P-8131), 5 mM potassium […] (#P-3289), 2 mM magnesium chloride, and 1x PBS, pH 6.0. Cells or tissue sections were incubated at 37°C for 24 hours. After staining, cells were washed with PBS before being counted and imaged on the Leica Dmi8 microscope.
Mice were aged between 3-8 months and 20-30 g in weight and were housed in specific pathogen free cages. Animals were randomly distributed among treatment groups by assigning mice within the same cage to different treatment regimens. To minimise confounders, mouse treatment order was randomised within each cage. Male and female mice were distributed between all treatment groups since the chemicals used were directly injected and are not metabolized. Researchers were not blinded to the group allocation, but all attempts were made to analyse the data without knowing treatment conditions. […] Mice were then monitored daily and allowed to age until a humane endpoint was reached according to our IACUC protocol, which in this case was tumours of 2 cm in size. […]

A short description of data set [2]: Systemic delivery to aged mice, blood counts, weight, plasma urea. The class given is in vivo, mouse.
For data set [3], the system named is A375, B16F10, HCT116, MCF7, IMR90 and MCF10A cells. The data set is described as follows: ES2 viability (MTS) in cell line panel, senescent vs dividing. The class given is cell-based. As for the experimental part:
Cell lines were treated with chemotherapy, doxorubicin (Sigma, Cat. No. 2252) to induce senescence (200 nM for HCT116, 100 nM for B16-F10 and MCF7, 50 nM for SW480 and DLD-1, 40 nM for A375-Luc/iRFP and MCF10a). MCF7 cells were treated with CDK4/6 inhibitor, palbociclib (Selleck Chemicals: S1116) to induce senescence (5 µM). A375 cells were treated with Braf inhibitor, Dabrafenib (Selleck Chemicals: S2807), to induce senescence (10 µM). Peptide efficacy experiments were performed by seeding 10,000 – 20,000 cells in a 96-well plate. The cells were given doxorubicin twice to make the cells senescent. After removal of doxorubicin, the plate was treated with varying concentrations of peptide. The peptide was replenished daily for two days. Cellular proliferation was quantified using the Promega CellTiter 96™ AQueous One Solution Cell Proliferation Assay (MTS) after 2 hours according to the manufacturer's protocol (Promega, G3581). To control for the charge of ES2, ProteoJuice (Millipore Sigma, 71281) was used to deliver ES2 using the manufacturers protocol, except 50 µL of 2 mM ES2 was mixed with 25 µL of ProteoJuice. Varying concentrations of the mixture were administered to A375 cells along with a control of only ProteoJuice.

Setting [4] is: aged mice (82 weeks), 3 mg ES2 via tail vein weekly for three weeks, n=5.

Take “PRKGGRRRRAWGRRRRRRRRRRRRRRAPRKRLTLA [ES2]”: the “number of senescent cells in the liver (SA-β-gal activity)” value in data set [1] is recorded as “reduced the number of senescent cells in the liver by half”. Besides, in data set [2] (setting [4]), the “change in weight of the mice” value was “no significant change” and the “changes in numbers of white blood cells, platelets, or red blood cells” value is listed as “non-significant changes”. The “toxicity after multiple doses” value in data set [2] (aged mice, 3 weekly i.v. doses) is “minimal toxicity”. Also, the plasma urea levels entry in data set [2] (aged mice, endpoint, n=5) was “while not significant, were reduced”. In addition, the “concentration of ES2 resulting in cell death, doxorubicin vs other pro-senescence agents” value in data set [3] (A375 with Dabrafenib, MCF7 with Palbociclib) is “no difference in concentration of ES2 resulting in cell death”. Also, the “IC50 in dividing cells relative to senescent cells” value in data set [3] (doxorubicin-induced senescence, all cell lines) was “at least 3 times”.

(Values after PMC8546421, “Molecular modelling of the FOXO4-TP53 interaction to design senolytic peptides for the elimination of senescent cancer cells” (EBioMedicine, 2021).)
